Results from patent US11629123B2, “Selenopsammaplin A and derivative thereof, preparation method therefor, and composition for preventing and treating cancer, containing same as active ingredients” (priority 2017, dated 2023).
“Also recorded” adds a separate entry of the source. Read-outs that look alike come from different tables or passages of the source.

Experiments:
Assay type in all cases: cell-based
[1] = tested on: colorectal cancer cell line HCT116; test: cells
Method: (§1) To confirm the in vitro growth inhibitory efficacy of the samples prepared in Examples 1 to 28 against human lung cancer and colorectal cancer cell lines, the experiments were performed as follows by applying the method described in the literature (Lee S K et al ([…]) Chem Biol Interact 115:215-28). A human lung cancer cell line A549 and a colorectal cancer cell line HCT116 were acquired from the American Type Culture Collection (ATCC, Manassas, Va., USA) and used.
(§2) A549, HCT116 cells were subcultured once or twice weekly under conditions of 37° C. and 5% CO2 using Roswell Park Memorial Institute (RPMI) Medium 1640 (RPMI 1640) containing 10% heat-inactivated Fetal Bovine Serum (FBS), 100 units/mL penicillin, 100 μg/mL streptomycin, and 250 ng/mL amphotericin B. All cells were thawed from liquid nitrogen, subcultured three times or more, and then used in the experiment.
(§3) The effects of the compounds obtained in Examples 1 to 28 on cell growth were measured by a sulforhodamine B (SRB) method (Lee et al (1998) Chem Biol Interact 115: 215-28).
(§4) Specifically, the human lung cancer and colon cancer cell lines used in the present invention were subcultured in a RPMI medium containing 10% FBS, 1% PSF, and the like, 10 μl of a sample dissolved in 10% DMSO and 190 μl (5×10^4 cells/ml) of the cell suspension were placed in each well of a 96-well plate. 190 μl of the cell suspension was placed in at least 16 wells, cultured for 30 minutes, and used as a negative control (zero-day control) before the experiment. The cultured cells were fixed with 10% trichloroacetic acid (TCA) and then stained with an SRB solution, the staining solution was dissolved with 10 mM Tris-base, and absorbance was measured at 515 nm. Using the cell culture in 10% DMSO as a control, cell viability according to the treatment with each test sample was measured using the following Equation 1. % Cell viability=(OD(sample)−OD(0-day))/(OD(10% DMSO)−OD(0-day))×100 [Equation 1]
(§5) When the control in which the sample was not treated was defined as 100%, the value of the sample treatment group was shown as a percentage with respect to the control, and each test sample treatment was determined by the mean value±SEM of the duplicate or triplicate test. The IC50 value is the concentration of the test sample for 50% viability.

[2] = tested on: human lung cancer cell line A549; test: cells
Method: as §1, §2, §3, §4, §5

[3] = tested on: human lung cancer and colorectal cancer cell lines; test: In vitro growth inhibition (SRB), summary over both cell lines; settings: compared with control compound etoposide
Method: as §1, §2, §3, §4, §5

[4] = Homo sapiens, HCT-116, read-out: HCT116-LC50, Table 2, SRB, concentration for 50% viability
[5] = Homo sapiens, A549, read-out: A549-LC50, Table 2, SRB, concentration for 50% viability
[6] = Homo sapiens, HCT-116, read-out: HCT116-LC50, Table 3, SRB, concentration for 50% viability
[7] = Homo sapiens, A549, read-out: A549-LC50, Table 3, SRB, concentration for 50% viability
[8] = Homo sapiens, HCT-116, read-out: HCT116-LC50
[9] = Homo sapiens, A549, read-out: A549-LC50

SMILES | CC50 [1, 6] [nM] | CC50 [2, 7] [nM] | CC50 [1, 8] [nM] | CC50 [2, 9] [nM] | also measured
O=C(NCC[Se][Se]CCNC(=O)/C(Cc1ccc(O)c(F)c1)=N/O)/C(Cc1ccc(O)c(F)c1)=N/O [SSM-3, (2E,2′E)-N,N′-(diselanediylbis(ethane-2,1-diyl))bis(3-(3-fluoro-4-hydroxyphenyl)-2-(hydroxyimino)propanamide)] | – | – | – | – | CC50 [1, 4]: 50 nM; CC50 [2, 5]: 60 nM; cancer cell growth inhibitory activity compared to etoposide [3]: higher inhibitory activity than a control compound etoposide; also recorded: excellent cancer cell growth inhibitory potential even compared to etoposide
O=C(NCC[Se]Sc1ccccc1)/C(Cc1ccccc1)=N/O [SSM-18, (E)-2-(hydroxyimino)-3-phenyl-N-(2-((phenylthio)selanyl)ethyl)propanamide] | 130 | 280 | – | – | –
COc1cc([C@@H]2c3cc4c(cc3[C@@H](O[C@@H]3O[C@@H]5CO[C@@H](C)O[C@H]5[C@H](O)[C@H]3O)[C@H]3COC(=O)[C@H]23)OCO4)cc(OC)c1O [Etoposide, reference compound] | 610 | 710 | – | – | CC50 [1, 4]: 900 nM; CC50 [2, 5]: 420 nM
O=C(NCC[Se]Sc1ccccc1)/C(Cc1ccc(O)c(Br)c1)=N/O [SSM-15, (E)-3-(3-bromo-4-hydroxyphenyl)-2-(hydroxyimino)-N-(2-((phenylthio)selanyl)ethyl)propanamide] | 10 | 100 | – | – | –
O=C(NCC[Se]Sc1ccccc1)/C(Cc1ccc(Br)cc1)=N/O [SSM-21, (E)-3-(4-bromophenyl)-2-(hydroxyimino)-N-(2-((phenylthio)selanyl)ethyl)propanamide] | 180 | 510 | – | – | –
CCOc1ccc(C/C(=N\O)C(=O)NCC[Se]Sc2ccccc2)cc1 [SSM-24, (E)-3-(4-ethoxyphenyl)-2-(hydroxyimino)-N-(2-((phenylthio)selanyl)ethyl)propanamide] | 130 | 330 | – | – | –
O=C(NCC[Se]Sc1ccccc1)/C(Cc1ccc2ccccc2c1)=N/O [SSM-28, (E)-2-(hydroxyimino)-3-(naphthalen-2-yl)-N-(2-((phenylthio)selanyl)ethyl)propanamide] | 20 | 120 | – | – | –
CC(C)(C)c1ccc(C/C(=N\O)C(=O)NCC[Se][Se]CCNC(=O)/C(Cc2ccc(C(C)(C)C)cc2)=N/O)cc1 [SSM-13, (2E,2′E)-N,N′-(diselanediylbis(ethane-2,1-diyl))bis(3-(4-(tert-butyl)phenyl)-2-(hydroxyimino)propanamide)] | – | – | 130 | 100 | –
O=C(NCC[Se]Sc1ccccc1)/C(Cc1ccc(F)cc1)=N/O [SSM-19, (E)-3-(4-fluorophenyl)-2-(hydroxyimino)-N-(2-((phenylthio)selanyl)ethyl)propanamide] | 330 | 490 | – | – | –
O=C(NCC[Se]Sc1ccccc1)/C(Cc1ccc(O)c(Cl)c1)=N/O [SSM-16, (E)-3-(3-chloro-4-hydroxyphenyl)-2-(hydroxyimino)-N-(2-((phenylthio)selanyl)ethyl)propanamide] | 90 | 110 | – | – | –
O=C(NCC[Se][Se]CCNC(=O)/C(Cc1ccc(F)c(F)c1)=N/O)/C(Cc1ccc(F)c(F)c1)=N/O [SSM-8, (2E,2′E)-N,N′-(diselanediylbis(ethane-2,1-diyl))bis(3-(3,4-difluorophenyl)-2-(hydroxyimino)propanamide)] | – | – | 190 | 200 | –
O=C(NCC[Se][Se]CCNC(=O)/C(Cc1ccc2ccccc2c1)=N/O)/C(Cc1ccc2ccccc2c1)=N/O [SSM-14, (2E,2′E)-N,N′-(diselanediylbis(ethane-2,1-diyl))bis(2-(hydroxyimino)-3-(naphthalen-2-yl)propanamide)] | – | – | – | – | CC50 [1, 4]: 120 nM; CC50 [2, 5]: 380 nM
O=C(NCC[Se][Se]CCNC(=O)/C(Cc1ccc(OCc2ccccc2)cc1)=N/O)/C(Cc1ccc(OCc2ccccc2)cc1)=N/O [SSM-11, (2E,2′E)-N,N′-(diselanediylbis(ethane-2,1-diyl))bis(3-(4-(benzyloxy)phenyl)-2-(hydroxyimino)propanamide)] | – | – | – | – | CC50 [1, 4]: 100 nM; CC50 [2, 5]: 140 nM
O=C(NCC[Se][Se]CCNC(=O)/C(Cc1ccc(Cl)c(Cl)c1)=N/O)/C(Cc1ccc(Cl)c(Cl)c1)=N/O [SSM-9, (2E,2′E)-N,N′-(diselanediylbis(ethane-2,1-diyl))bis(3-(3,4-dichlorophenyl)-2-(hydroxyimino)propanamide)] | – | – | 520 | 280 | –
O=C(NCC[Se]Sc1ccccc1)/C(Cc1ccc(Cl)c(Cl)c1)=N/O [SSM-23, (E)-3-(3,4-dichlorophenyl)-2-(hydroxyimino)-N-(2-((phenylthio)selanyl)ethyl)propanamide] | – | – | 50 | 280 | –
O=C(NCCSSCCNC(=O)/C(Cc1ccc(O)c(Br)c1)=N/O)/C(Cc1ccc(O)c(Br)c1)=N/O [Psammaplin A] | – | – | – | – | CC50 ([1]; Table 2, SRB, concentration for 50% viability, read-out: HCT116-LC50): 610 nM; CC50 ([1]; Table 3, SRB, concentration for 50% viability, read-out: HCT116-LC50): 610 nM; CC50 ([2]; Table 2, SRB, concentration for 50% viability, read-out: A549-LC50): 1760 nM; CC50 ([2]; Table 3, SRB, concentration for 50% viability, read-out: A549-LC50): 1760 nM
O=C(NCC[Se]Sc1ccccc1)/C(Cc1ccc([N+](=O)[O-])cc1)=N/O [SSM-26, (E)-2-(hydroxyimino)-3-(4-nitrophenyl)-N-(2-((phenylthio)selanyl)ethyl)propanamide] | – | – | 120 | 120 | –
O=C(NCC[Se]Sc1ccccc1)/C(Cc1ccc(OCc2ccccc2)cc1)=N/O [SSM-25, (E)-3-(4-(benzyloxy)phenyl)-2-(hydroxyimino)-N-(2-((phenylthio)selanyl)ethyl)propanamide] | 80 | 180 | – | – | –
O=C(NCC[Se]Sc1ccccc1)/C(Cc1ccc(O)c(F)c1)=N/O [SSM-17, (E)-3-(3-fluoro-4-hydroxyphenyl)-2-(hydroxyimino)-N-(2-((phenylthio)selanyl)ethyl)propanamide] | 200 | 290 | – | – | –
O=C(NCC[Se][Se]CCNC(=O)/C(Cc1ccc(Br)cc1)=N/O)/C(Cc1ccc(Br)cc1)=N/O [SSM-7, (2E,2′E)-N,N′-(diselanediylbis(ethane-2,1-diyl))bis(3-(4-bromophenyl)-2-(hydroxyimino)propanamide)] | – | – | – | – | CC50 [1, 4]: 300 nM; CC50 [2, 5]: 320 nM
O=C(NCC[Se]Sc1ccccc1)/C(Cc1ccc(Cl)cc1)=N/O [SSM-20, (E)-3-(4-chlorophenyl)-2-(hydroxyimino)-N-(2-((phenylthio)selanyl)ethyl)propanamide] | – | – | 330 | 490 | –
O=C(NCC[Se]Sc1ccccc1)/C(Cc1ccc(F)c(F)c1)=N/O [SSM-22, (E)-3-(3,4-difluorophenyl)-2-(hydroxyimino)-N-(2-((phenylthio)selanyl)ethyl)propanamide] | – | – | 310 | 480 | –
O=C(NCC[Se][Se]CCNC(=O)/C(Cc1ccc(F)cc1)=N/O)/C(Cc1ccc(F)cc1)=N/O [SSM-5, (2E,2′E)-N,N′-(diselanediylbis(ethane-2,1-diyl))bis(3-(4-fluorophenyl)-2-(hydroxyimino)propanamide)] | – | – | – | – | CC50 [1, 4]: 110 nM; CC50 [2, 5]: 100 nM
O=C(NCC[Se][Se]CCNC(=O)/C(Cc1ccc(Cl)cc1)=N/O)/C(Cc1ccc(Cl)cc1)=N/O [SSM-6, (2E,2′E)-N,N′-(diselanediylbis(ethane-2,1-diyl))bis(3-(4-chlorophenyl)-2-(hydroxyimino)propanamide)] | – | – | 280 | 250 | –
